The text below walks through data of publication PMC7760777 (Microorganisms, 2020).

Series [1] has as its system SARS-CoV-2. As to the kind of experiment: microbe, parasite or virus in culture. As to conditions: Severe acute respiratory syndrome coronavirus 2, Vero C1008, 24 h.
Series [2] deals with SARS-CoV-2. As to conditions: Vero E6 cells; for inhibition of SARS-CoV-2 in compound dilution series: 4 µM to 0.062 µM, 24 h post-infection.
The nature of series [3]: CC50 determination on Calu-3 cells (cell viability). As to conditions: human.
Series [4] in a line: CellTiter-Glo 2.0 cell viability assay on Vero E6 cells. As to conditions: African green monkey, Vero E6 cells (uninfected). On the technique in general: In ATP-based viability assays light output follows the ATP content of the culture.
Series [5] is described as follows: CellTox green cytotoxicity assay on Vero E6 cells. Particulars: African green monkey, Vero E6 cells (uninfected).
Series [6] relates to SARS-CoV-2. As to the kind of experiment: Survival screen: SARS-CoV-2-induced CPE, crystal violet staining. It counts as cell-based. Particulars: Vero E6 cells, 1 µM, 2 h pretreatment, MOI 0.01, 48 h. The method, then:
Vero E6 cells were seeded in 96-well clear bottom, black wall plates (Costar, Tewksbury, MA, USA), at a density of 20,000 cells per well, one day prior to the experiment. Cells were pretreated for 2 h with 1 µM of each compound contained in the PRB. Remdesivir, K22 [17], and vehicle controls (DMSO) were included in each plate. Subsequently, cells were infected with SARS-CoV-2 at a multiplicity of infection (MOI) of 0.01 in compound-containing medium and incubated at 37 °C in a humidified incubator with 5% CO2. Uninfected (mock) controls were included in each plate. At 48 h post-infection (hpi), cells were fixed with 4% (v/v) neutral buffered formalin (Formafix AG, Hittnau, Switzerland) and stained with crystal violet. Cell viability and cytotoxicity were assessed in parallel, in identically treated, uninfected plates. […]
To identify potential antiviral compounds against SARS-CoV-2 replication, 201 antibacterial, 46 antifungal and 153 antiviral molecules included in the PRB were screened using a conservative concentration of 1 µM. […] Cell survival was scored from 0 (virus-induced cytopathogenic effects; CPE) to 1 (no CPE), upon evaluation of SARS-CoV-2-induced CPE using crystal violet staining (Figure 1A). The cytotoxicity and cell viability were assessed on uninfected plates processed in parallel, to exclude detrimental effects of the compounds on the cells. […]

The test system of series [7] is SARS-CoV-2. In words: in vitro.
The subject of series [8] is SARS-CoV-2. In words: microbe, parasite or virus in culture. The format is cell-based. Particulars: Severe acute respiratory syndrome coronavirus 2; Calu-3 cells, percentage of virus-infected cells, 2 h pretreatment, fixed 48 h post-infection.
Series [9] concerns SARS-CoV-2. It counts as cell-based. As to conditions: Vero E6 supernatants, dose-dependent, TCID50.
For series [10], the system named is SARS-CoV-2. As to the kind of experiment: Time-of-addition experiment in Vero E6 cells. As to conditions: 10 μM. It counts as cell-based.
Series [11] can be described thus: in vitro. Particulars: African green monkey.
For series [12], the system named is Vero E6 cells. As to the kind of experiment: CellTiter-Glo 2.0 cell viability assay on Vero E6 cells. Particulars: Vero E6 cells, uninfected plates, 48 h.
The nature of series [13]: in vitro. As to conditions: African green monkey. The source holds these as a separate data set.
Series [14] concerns Vero E6 cells. In words: CellTox green cytotoxicity assay on Vero E6 cells. As to conditions: Vero E6 cells, uninfected plates, 48 h.
The mark [15] stands for this setting: Selective Index (SI), CC50 divided by EC50, Vero E6 cells.

“Also recorded” adds a separate entry of the source. Where two headings read alike, the source gives them in different places. Bounds are passed on as bounds.

Turning to `CCN(CC)CCCC(C)Nc1ccnc2cc(Cl)ccc12` (centres unmarked) [Chloroquine], in the series on SARS-CoV-2 [1], the EC90 worked out at 10.4 µM. In addition, the “inhibition of SARS-CoV-2 in compound dilution series” value with SARS-CoV-2 [2] is “inhibited SARS-CoV-2 in a dose-dependent manner”.

Take `Cc1ccc(C)c(OCCCCCCN2C[C@H](O)[C@@H](O)[C@H](O)[C@H]2CO)c1` [PBDNJ0803]: the “inhibition of SARS-CoV-2 in compound dilution series” value in the series on SARS-CoV-2 [2] was “inhibited SARS-CoV-2 in a dose-dependent manner”. Moreover, the CC50 at 48 h in series [3], in series [4] and in [5] was more than 100 µM in each case.

`CCCCCCCCCN1C[C@H](O)[C@@H](O)[C@H](O)[C@H]1CO` [NN-DNJ, N-Nonyl Deoxynojirimycin]: the “inhibition of SARS-CoV-2 in compound dilution series” value in the series on SARS-CoV-2 [2] was “inhibited SARS-CoV-2 in a dose-dependent manner”. The CC50 at 48 h in series [3], in series [4] and in series [5] was more than 100 µM each time.

On to `O=C(N/C(=C\c1ccccc1)C(=O)N1CCC(O)(c2ccc(Br)cc2)CC1)c1ccccc1` [K22], for which the “inhibition of SARS-CoV-2-induced CPE in the survival screen” value in the series on SARS-CoV-2 [6] is given as “did not show any inhibitory activity; also recorded: did not inhibit SARS-CoV-2 infection”.

For `CN1CCN(Cc2ccc(-c3cnc4[nH]cc(-c5ccc6[nH]ccc6c5)c4c3)cc2)CC1` [URMC-099-C], it took 1.83 µM to reach the 90% level in the series on SARS-CoV-2 [1] (EC90). Further, the “Selective Index (SI), CC50 divided by EC50” value in the series with SARS-CoV-2 [2] is recorded as 50.69. The “inhibition of SARS-CoV-2 in compound dilution series” value with SARS-CoV-2 [2] was “inhibited SARS-CoV-2 in a dose-dependent manner”. In addition, the CC50 at 48 h in series [3] is 15.5 µM; in [4], 14.7 µM; in series [5], 24.9 µM. Besides, the selectivity ratio in the series on SARS-CoV-2 [7] (setting [15]) turned out to be 50.7.

`Cc1nc(-c2ccc([C@@H]3N(C)c4ccc(F)cc4C(=O)N3c3ccccc3)s2)cs1` [Retro-2.1]: the EC90 in the series with SARS-CoV-2 [1] is 1.03 µM. The “inhibition of SARS-CoV-2 in compound dilution series” value in the series with SARS-CoV-2 [2] is listed as “inhibited SARS-CoV-2 in a dose-dependent manner”. For the same molecule, the CC50 at 48 h in [3] was more than 100 µM. The selectivity ratio in the series with SARS-CoV-2 [7] was more than 239. The EC50 in the series with SARS-CoV-2 [8] worked out at 0.08 µM. Also, the CC50 at 48 h in series [4] was more than 100 µM. Besides, the “reduction in viral titer” value with SARS-CoV-2 [9] is listed as “strongest reduction”. For the same molecule, in the series on SARS-CoV-2 [10] (MOI 0.01, 24 h post-infection), the “inhibitory effect on SARS-CoV-2-infected cells, treatment after infection (condition 3)” value is “most pronounced inhibitory effect”; the “inhibitory effect on SARS-CoV-2-infected cells, treatment during infection (condition 2)” value is recorded as “more pronounced inhibition”; the “inhibitory effect on SARS-CoV-2-infected cells, treatment prior to infection (condition 1)” value is “only a marginal reduction”. Also, the “reduction in viral titer, treatment after infection (condition 3)” value with SARS-CoV-2 [10] (supernatant at 24 h post-infection) was more than 1000 fold. Further, the CC50 at 48 h in series [5] is more than 100 µM.

As to `CCC(CC)COC(=O)[C@H](C)N[P@](=O)(OC[C@H]1O[C@@](C#N)(c2ccc3c(N)ncnn23)[C@H](O)[C@@H]1O)Oc1ccccc1` [Remdesivir], the CC50 in “in vitro [11]” and in the series “in vitro [13]” was more than 100 µM throughout. This molecule had an EC90 in the series with SARS-CoV-2 [1] of 3.39 µM. In the series on SARS-CoV-2 [2], the “Selective Index (SI), CC50 divided by EC50” value was more than 73.85. In addition, the selectivity ratio in the series on SARS-CoV-2 [7] (setting [15]) is more than 73.8. The 50% effective concentration (EC50) with SARS-CoV-2 [8] is 0.17 µM. Further, in the series on Vero E6 cells [12], the “influence on cell viability in the screen” value is “did not influence”. The “influence on cell cytotoxicity in the screen” value with Vero E6 cells [14] is listed as “did not influence cell cytotoxicity”.

The term EC90 denotes the point of the concentration-response curve where the effect stands at 90%. The EC50 is the concentration at which the effect is half-maximal.
